The values below come from US4520026A, “Indolizine derivatives and use as cardiovascular agents” (S. A. Labaz N.V., priority 1982, dated 1985).

Data set [1] can be described thus: Acute toxicity by intravenous route to rats. The conditions noted are these: rat, in vivo, oxalate acid form except those marked (hydrochloride). The data set is classed as in vivo. The method, then: Acute toxicity tests were carried out on rats and mice. The following results were registered in comparison with butoprozine. The compounds of the invention were used in oxalate acid form except those marked (x) which were tested in hydrochloride form.

The test system of data set [2] is epinephrine-accelerated heart rate (anti-β effect). Briefly: Antiadrenergic effect: anti-β effect (reduction of epinephrine-accelerated heart rate). The data set is classed as in vivo. As to conditions: dog. The method, then:
(§1) The purpose of this test was to determine the capacity of the compounds under study to reduce epinephrine-increased blood-pressure (anti-α effect) and epinephrine-accelerated heart rate (anti-β effect) in the dog previously anaesthetized with pentobarbital and atropinized.
(§2) For each dog, the dose of epinephrine was first determined which provoked a reproductible increase by about 100 mm. Hg in the arterial pressure (between 5 and 10 μg/kg). After that, the dose of epinephrine so determined was administered followed by a dose by intravenous route of the compound to be studied. The percentage of reduction of the hypertension provoked by the compound under study in comparison with the hypertension previously obtained (about 100 mm. Hg) was then registered.
(§3) The percentage of reduction of the epinephrine-induced acceleration of heart-rate produced by the compound under study in comparison with the tachycardia previously measured (about 70 beats) was then registered. In both cases, the results were expressed as follows: […]
(§4) + for a <50%-reduction of the increase in pressure or cardiac frequency
(§5) ++ for a ≥50%-reduction of the increase in pressure or cardiac frequency
(§6) +++ for a subtotal reduction of the increase in pressure or cardiac frequency

The subject of data set [3] is epinephrine-increased blood-pressure (anti-α effect). Briefly: Antiadrenergic effect: anti-α effect (reduction of epinephrine-increased blood-pressure). The data set is classed as in vivo. The conditions noted are these: dog; for inhibition in vivo at 10 mg/kg: Canis lupus familiaris, iv. The protocol:
as §1, §2, §3, §4, §5, §6

The test system of data set [4] is blood-flow to the myocardium. Briefly: Effect on blood-flow to the myocardium, anaesthetized dogs, intravenous. The data set is classed as in vivo, dog. The method, then:
It was undertaken on anaesthetized dogs which received the substance under study by intravenous route. The intensity of the maximum effect on blood-flow to the myocardium was expressed in percentage of the corresponding value before injection. The time required for the maximum effect to decrease by 50% represented the duration of the effect. This time was measured in minutes.

The mark [5] stands for this setting: Canis lupus familiaris, iv, dose 10 mg/kg i.v.
The mark [6] stands for this setting: Canis lupus familiaris, iv, dose 10 mg/kg i.v., anaesthetized dog, read-out: Max. increase (blood-flow to the myocardium).
The mark [7] stands for this setting: dose 10 mg/kg i.v., anaesthetized dog.
The mark [8] stands for this setting: Canis lupus familiaris, iv, dose 5 mg/kg i.v., anaesthetized dog, read-out: Max. increase (blood-flow to the myocardium).
[9] abbreviates: dose 5 mg/kg i.v., anaesthetized dog.
Setting [10] is: Canis lupus familiaris, iv, dose 8 mg/kg i.v., anaesthetized dog, read-out: Max. increase (blood-flow to the myocardium).
Where [11] appears, read: dose 8 mg/kg i.v., anaesthetized dog.

Take `CCCCN(CCCC)CCCOc1ccc(C(=O)c2c(-c3ccccc3)c(Br)c3ccccn23)cc1Cl.Cl` [(*)Br/Cl/H/drawing 49/n-C4H9/3, 1-Bromo-2-phenyl-3-[4-(3-di-n-butylaminopropyl)-oxy-3-chloro-benzoyl]-indolizine hydrochloride]: the LD50 in data set [1] was greater than 100 mg/kg.
As for `CCCCN(CCCC)CCCOc1ccc(C(=O)c2c(CC)cc3ccccn23)cc1Cl.Cl` [(*)H/Cl/H/C2H5/n-C4H9/3, 2-Ethyl-3-[4-(3-di-n-butylaminopropyl)-oxy-3-chloro-benzoyl]-indolizine hydrochloride], in data set [1], the LD50 was 65 mg/kg.
On to `CCCCc1oc2ccccc2c1C(=O)c1cc(I)c(OCCN(CC)CC)c(I)c1` [Amiodarone, reference compound], for which the inhibition in vivo at 10 mg/kg in data set [2] (setting [5]) and in data set [3] (dose 10 mg/kg i.v.) was greater than 50% in each case. The change in vivo at 10 mg/kg in data set [4] (setting [6]) amounted to 36%. Moreover, in data set [4] (comparative), the “Coronarodilating effect / blood-flow to the myocardium, in words” value is on record as “cannot be regarded as a coronarodilator”. For the same molecule, the “Time required to decrease to 50% (duration of effect)” value in data set [4] (setting [7]) amounted to 7 min.
For the molecule `CCCCN(CCCC)CCCOc1ccc(C(=O)c2c(CC)c(Br)c3ccccn23)cc1Br` [Br/Br/H/C2H5/n-C4H9/3, 1-Bromo-2-ethyl-3-[4-(3-di-n-butylaminopropyl)-oxy-3-bromo-benzoyl]-indolizine], the Anti-β effect entry in data set [2] (dose 10 mg/kg i.v.) is “+++”. The Anti-α effect result in data set [3] (dose 10 mg/kg i.v.) is “+++”. Further, the change in vivo at 10 mg/kg in data set [4] (setting [6]) was found to be 60%. Besides, the “Time required to decrease to 50% (duration of effect)” value in data set [4] (setting [7]) worked out at 90 min.
In the case of `CCCCc1c(Br)c2ccccn2c1C(=O)c1ccc(OCCCN(CCC)CCC)c(Br)c1` [Br/Br/H/n-C4H9/n-C3H7/3, 1-Bromo-2-n-butyl-3-[4-(3-di-n-propylaminopropyl)-oxy-3-bromo-benzoyl]-indolizine], in data set [4] (setting [6]), the change in vivo at 10 mg/kg stood at 100%. Further, in data set [4] (setting [7]), the “Time required to decrease to 50% (duration of effect)” value was determined as 20 min.
On the same counts, the results for `CCCCN(CCCC)CCCOc1ccc(C(=O)c2c(-c3ccccc3)c(Br)c3ccccn23)cc1Cl` [Br/Cl/H/drawing 17/n-C4H9/3] are 90% and 90 min.
For the molecule `CCCN(CCC)CCCOc1ccc(C(=O)c2c(-c3ccc(Br)cc3)c(Br)c3ccccn23)cc1Cl` [Br/Cl/H/drawing 18/n-C3H7/3], the change in vivo at 10 mg/kg in data set [4] (setting [6]) was 50%. In data set [4] (setting [7]), the “Time required to decrease to 50% (duration of effect)” value turned out to be 50 min.
The like results for `CCCN(CCC)CCCOc1ccc(C(=O)c2c(-c3ccc(Cl)cc3)c(Br)c3ccccn23)cc1Cl` [Br/Cl/H/drawing 19/n-C3H7/3] were, in that order, 63% and 45 min.
Consider `CCCCN(CCCC)CCCOc1ccc(C(=O)c2c(C(C)C)c(Br)c3ccccn23)cc1Cl` [Br/Cl/H/iso-C3H7/n-C4H9/3, 1-Bromo-2-isopropyl-3-[4-(3-di-n-butylaminopropyl)-oxy-3-chloro-benzoyl]-indolizine], for which the change in vivo at 5 mg/kg in data set [4] (setting [8]) came out at 133%. For the same molecule, in data set [4] (setting [9]), the “Time required to decrease to 50% (duration of effect)” value came out at 20 min.
As for `CCCCN(CCCC)CCCOc1ccc(C(=O)c2c(CCC)c(Br)c3ccccn23)cc1Cl` [Br/Cl/H/n-C3H7/n-C4H9/3, 1-Bromo-2-n-propyl-3-[4-(3-di-n-butylaminopropyl)-oxy-3-chloro-benzoyl]-indolizine], the Anti-β effect entry in data set [2] (dose 10 mg/kg i.v.) is given as “+++”. In addition, the Anti-α effect result in data set [3] (dose 10 mg/kg i.v.) is recorded as “+++”. Also, in data set [4] (Canis lupus familiaris, iv, dose 2.5 mg/kg i.v., anaesthetized dog, read-out: Max. increase (blood-flow to the myocardium)), the change in vivo at 2.5 mg/kg worked out at 50%. Moreover, the “Time required to decrease to 50% (duration of effect)” value in data set [4] (dose 2.5 mg/kg i.v., anaesthetized dog) came out at 60 min.
For `CCCCc1c(Br)c2ccccn2c1C(=O)c1ccc(OCCCN(CCC)CCC)c(Cl)c1` [Br/Cl/H/n-C4H9/n-C3H7/3, 1-Bromo-2-n-butyl-3-[4-(3-di-n-propylaminopropyl)-oxy-3-chloro-benzoyl]-indolizine], the inhibition in vivo at 10 mg/kg in data set [2] (setting [5]) is less than 50%; in data set [3] (dose 10 mg/kg i.v.) it was greater than 50%. For the same molecule, in data set [4] (setting [6]), the change in vivo at 10 mg/kg amounted to 40%. Moreover, the “Time required to decrease to 50% (duration of effect)” value in data set [4] (setting [7]) was 90 min.
Consider `CCCN(CCC)CCCOc1ccc(C(=O)c2c(CC)c(Cl)c3ccccn23)cc1Cl` [Cl/Cl/H/C2H5/n-C3H7/3, 1-Chloro-2-ethyl-3-[4-(3-di-n-propylaminopropyl)-oxy-3-chloro-benzoyl]-indolizine], for which, in data set [2] (dose 3.3 mg/kg i.v.), the Anti-β effect result is on record as “+++”. The Anti-α effect entry in data set [3] (dose 3.3 mg/kg i.v.) is “+++”. Also, the change in vivo at 3.3 mg/kg in data set [4] (Canis lupus familiaris, iv, dose 3.3 mg/kg i.v., anaesthetized dog, read-out: Max. increase (blood-flow to the myocardium)) stood at 60%. Besides, the “Time required to decrease to 50% (duration of effect)” value in data set [4] (dose 3.3 mg/kg i.v., anaesthetized dog) worked out at 25 min.
For the molecule `CCCN(CCC)CCCOc1ccc(C(=O)c2c(-c3cccc(Br)c3)c(Cl)c3ccccn23)cc1Cl` [Cl/Cl/H/drawing 21/n-C3H7/3, 1-Chloro-2-(3-bromo-phenyl)-3-[4-(3-di-n-propylaminopropyl)-oxy-3-chloro-benzoyl]-indolizine], the change in vivo at 8 mg/kg in data set [4] (setting [10]) was found to be 70%. For the same molecule, the “Time required to decrease to 50% (duration of effect)” value in data set [4] (setting [11]) was determined as 90 min.
With `CCCN(CCC)CCCOc1ccc(C(=O)c2c(-c3ccc(Cl)cc3)c(Cl)c3ccccn23)cc1` [Cl/H/H/drawing 22/n-C3H7/3], the change in vivo at 5 mg/kg in data set [4] (setting [8]) turned out to be 50%. Also, the “Time required to decrease to 50% (duration of effect)” value in data set [4] (setting [9]) came out at 40 min.
Take `CCCCN(CCCC)CCCOc1ccc(C(=O)c2c(-c3ccc(Br)cc3)cc3ccccn23)cc1Br` [H/Br/H/drawing 13/n-C4H9/3]: the change in vivo at 10 mg/kg in data set [4] (setting [6]) came to 90%. In data set [4] (setting [7]), the “Time required to decrease to 50% (duration of effect)” value is 25 min.
In the case of `CCCCN(CCCC)CCCOc1ccc(C(=O)c2c(CCC)cc3ccccn23)cc1Br` [H/Br/H/n-C3H7/n-C4H9/3, 2-n-Propyl-3-[4-(3-di-n-butylaminopropyl)-oxy-3-bromo-benzoyl]-indolizine], the change in vivo at 2 mg/kg in data set [4] (Canis lupus familiaris, iv, dose 2 mg/kg i.v., anaesthetized dog, read-out: Max. increase (blood-flow to the myocardium)) was determined as 120%. Also, in data set [4] (dose 2 mg/kg i.v., anaesthetized dog), the “Time required to decrease to 50% (duration of effect)” value was 25 min.
For the molecule `CCCCN(CCCC)CCCOc1c(Cl)cc(C(=O)c2c(-c3ccc(Br)cc3)cc3ccccn23)cc1Cl` [H/Cl/Cl/drawing 14/n-C4H9/3], in data set [4] (setting [6]), the change in vivo at 10 mg/kg stood at 45%. Also, the “Time required to decrease to 50% (duration of effect)” value in data set [4] (setting [7]) was found to be 15 min.
As for `CCCCN(CCCC)CCCOc1ccc(C(=O)c2c(CC)cc3ccccn23)cc1Cl` [H/Cl/H/C2H5/n-C4H9/3, 2-Ethyl-3-[4-(3-di-n-butylaminopropyl)-oxy-3-chloro-benzoyl]-indolizine], the inhibition in vivo at 6 mg/kg in data set [2] (Canis lupus familiaris, iv, dose 6 mg/kg i.v.) is greater than 50%. Moreover, the Anti-α effect result in data set [3] (dose 6 mg/kg i.v.) is “+++”. The change in vivo at 6 mg/kg in data set [4] (Canis lupus familiaris, iv, dose 6 mg/kg i.v., anaesthetized dog, read-out: Max. increase (blood-flow to the myocardium)) stood at 70%. Besides, the “Time required to decrease to 50% (duration of effect)” value in data set [4] (dose 6 mg/kg i.v., anaesthetized dog) came out at 45 min.
As to `CCCCN(CCCC)CCCOc1ccc(C(=O)c2c(-c3cccc(Br)c3)cc3ccccn23)cc1Cl` [H/Cl/H/drawing 15/n-C4H9/3], in data set [4] (setting [6]), the change in vivo at 10 mg/kg came to 30%. Also, the “Time required to decrease to 50% (duration of effect)” value in data set [4] (setting [7]) was found to be 45 min.
As for `CCCN(CCC)CCCOc1ccc(C(=O)c2c(-c3cccc(Br)c3)cc3ccccn23)cc1Cl` [H/Cl/H/drawing 16/n-C3H7/3], the change in vivo at 8 mg/kg in data set [4] (setting [10]) is 45%. Moreover, the “Time required to decrease to 50% (duration of effect)” value in data set [4] (setting [11]) worked out at 25 min.
With `CCCCN(CCCC)CCCOc1ccc(C(=O)c2c(-c3ccc(Br)cc3)cc3ccccn23)cc1Cl` [H/Cl/H/drawing 20/n-C4H9/3], the change in vivo at 10 mg/kg in data set [4] (setting [6]) amounted to 60%. Besides, the “Time required to decrease to 50% (duration of effect)” value in data set [4] (setting [7]) is 25 min.
For the molecule `CCCN(CCC)CCCOc1ccc(C(=O)c2c(C(C)C)cc3ccccn23)cc1Cl` [H/Cl/H/iso-C3H7/n-C3H7/3, 2-Isopropyl-3-[4-(3-di-n-propylaminopropyl)-oxy-3-chloro-benzoyl]-indolizine], the inhibition in vivo at 10 mg/kg in data set [2] (setting [5]) and in data set [3] (dose 10 mg/kg i.v.) was greater than 50% each time. The change in vivo at 5 mg/kg in data set [4] (setting [8]) amounted to 80%. In addition, the “Time required to decrease to 50% (duration of effect)” value in data set [4] (setting [9]) stood at 90 min.
In data set [2] (setting [5]), `CCCCc1cc2ccccn2c1C(=O)c1ccc(OCCCN(CCCC)CCCC)c(Cl)c1` [H/Cl/H/n-C4H9/n-C4H9/3, 2-n-Butyl-3-[4-(3-di-n-butylaminopropyl)-oxy-3-chloro-benzoyl]-indolizine] yielded an inhibition in vivo at 10 mg/kg greater than 50%. Also, the Anti-α effect result in data set [3] (dose 10 mg/kg i.v.) is given as “+++”. In data set [4] (setting [8]), the change in vivo at 5 mg/kg worked out at 75%. The “Time required to decrease to 50% (duration of effect)” value in data set [4] (setting [9]) stood at 30 min.
